From US10653131B2 (priority 2013, dated 2020)

System: spores of Bacillus thuringiensis

Compound: O=[N+]([O-])O [nitric acid]
- destruction, inactivation of spores: ensured destruction, inactivation
